Laboratory results from US7244837B2, “Insect monoamine transporter and methods of use thereof” (The University of Western Ontario, priority 1999, dated 2007).

Biological target: T1, OA/TAT (octopamine/tyramine transporter) (Trichoplusia ni, UniProt Q95VZ4, D309A/R312W)
T1 sequence (Q95VZ4 75-744 D309A/R312W): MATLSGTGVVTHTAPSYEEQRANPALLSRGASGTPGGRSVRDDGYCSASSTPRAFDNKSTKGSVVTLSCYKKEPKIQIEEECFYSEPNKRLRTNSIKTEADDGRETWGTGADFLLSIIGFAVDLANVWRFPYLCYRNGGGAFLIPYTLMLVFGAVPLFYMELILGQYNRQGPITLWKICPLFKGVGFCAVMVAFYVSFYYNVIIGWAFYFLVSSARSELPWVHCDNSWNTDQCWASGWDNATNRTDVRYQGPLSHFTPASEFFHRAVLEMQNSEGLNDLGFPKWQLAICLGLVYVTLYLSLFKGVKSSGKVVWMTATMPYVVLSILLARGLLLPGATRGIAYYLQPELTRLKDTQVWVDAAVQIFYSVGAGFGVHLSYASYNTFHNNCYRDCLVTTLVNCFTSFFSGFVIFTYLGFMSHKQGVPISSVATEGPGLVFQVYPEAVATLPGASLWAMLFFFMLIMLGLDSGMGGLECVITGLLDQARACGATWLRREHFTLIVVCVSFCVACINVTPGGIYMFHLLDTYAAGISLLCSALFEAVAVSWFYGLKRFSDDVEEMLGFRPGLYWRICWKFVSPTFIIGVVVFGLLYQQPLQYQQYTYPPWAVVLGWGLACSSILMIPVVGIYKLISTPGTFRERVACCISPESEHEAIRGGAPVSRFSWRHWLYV
Experiment: 3H-dopamine uptake by OA/TAT expressed in baculovirus-infected Sf21 insect cells (transport assay)
Format: cell-based
Conditions: for inhibition at 10 µM: read-out: % Inhibition of 3H-Dopamine uptake by OA/TAT

With `NCC(O)c1ccc(O)cc1` (racemic) [Octopamine, DL-Octopamine] the IC50 was 1920 ± 280 nM, the Ki was 1740 ± 250 nM and the inhibition at 10 µM was 80.9%.

Work on `CNCC(O)c1ccc(O)cc1` (racemic) [Synephrine, (±)-Synephrine] yielded an inhibition at 10 µM of 6.39%.

Compound `NCCc1ccc(O)c(O)c1` [Dopamine, 3-Hydroxytyramine] has an IC50 of 4100 ± 1020 nM, a Ki of 3720 ± 920 nM and an inhibition at 10 µM of 70.2%.

For `Fc1ccc(C(OCCN2CCN(CCCc3ccccc3)CC2)c2ccc(F)cc2)cc1` [GBR12909], the inhibition at 10 µM was -10%.

With `NCCc1c[nH]cn1` [Histamine] the inhibition at 10 µM was -1.81%.

Work on `NC[C@H](O)c1ccc(O)c(O)c1` [Norepinephrine, (−)-Arterenol] yielded an IC50 of 22000 ± 2940 nM, a Ki of 20000 ± 2670 nM and an inhibition at 10 µM of 27.2%.

`CN[C@@H](C)[C@@H](O)c1ccccc1` [Pseudoephedrine, (−)-ψ-Ephedrine] gave an inhibition at 10 µM of 1.31%.

Compound `NCCc1c[nH]c2ccc(O)cc12` [Serotonin, 5-Hydroxytryptamine] has an inhibition at 10 µM of -3.6%.

Compound `NCCc1c[nH]c2ccccc12` [Tryptamine] has an inhibition at 10 µM of 9.57%.

Work on `NCCc1ccc(O)cc1` [Tyramine] yielded an IC50 of 390 ± 110 nM, a Ki of 350 ± 100 nM and an inhibition at 10 µM of 96.5%.
